Test results from the supplement of paper PMC7394473.

Assays:
Conditions in all cases: 72 h
[1] = test system: U2OS; experiment: GR50 (concentration giving GR = 0.5)
Summary of the method: (§1)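 Each compound was tested as an eight- or ten-point half-log or log dilution series on mKate2-expressing U2OS cells in 96-well plates, with 50 nM SYTOX Green (final) present throughout 72 h at 37°C, 5% CO2. Images from an IncuCyte S3 gave counts of mKate2+ live cells and SYTOX+ dead cells. Four-parameter logistic models, with −1 as the lower limit for GR, were fitted to the data. The fits yielded the FV IC50 from unnormalised live/total fractional viability, and the GR50 or GRmin from growth-rate inhibition.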

[2] = test system: U2OS; experiment: fractional viability (live cells / total cells); higher = less cell death
Summary of the method: (§2)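 After overnight incubation in 96-well plates at 2500 cells per well, mKate2-expressing U2OS cells were given eight- or ten-point half-log or log dilutions with a final 50 nM SYTOX Green. Treatment ran for 72 h at 37°C, 5% CO2, in biological triplicate, and mKate2+ live and SYTOX+ dead cells were counted on IncuCyte S3 images (10x objective). Each dose is expressed as growth-rate inhibition normalised to untreated growth or as unnormalised fractional viability (live/total cells).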

[3] = test system: U2OS; experiment: FV IC50 (concentration giving fractional viability 0.5); higher = less potent killing
Description: (§3)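 U2OS cells treated with full dose titrations of drug; live and dead cells counted by STACK microscopy (mKate2 nuclei, SYTOX Green) at 72 h, biological triplicates. GR and FV dose responses were fitted with 4-parameter logistic models (GR lower bound -1). GRADE (0-100) is the rescaled angle of a linear fit of FV versus GR at doses with GR >= 0, giving the percentage of the response due to cell death.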

[4] = test system: U2OS; experiment: drug GRADE (percent of response due to cell death) (% (0-100)); higher = more death-driven response
Description: as §3

[5] = test system: U2OS; experiment: GRmin (fitted minimal GR value at highest effect) (GR value (dimensionless)); higher = less efficacious
Summary of the method: as §1

[6] = test system: U2OS; experiment: normalized growth rate inhibition value (GR) relative to untreated cells (GR value (dimensionless, 1 = untreated growth)); higher = less growth inhibition
Summary of the method: as §2

CC(C)[C@@H]1NC(=O)[C@H](C)OC(=O)[C@@H](C(C)C)NC(=O)[C@@H](C(C)C)OC(=O)[C@H](C(C)C)NC(=O)[C@H](C)OC(=O)[C@@H](C(C)C)NC(=O)[C@@H](C(C)C)OC(=O)[C@H](C(C)C)NC(=O)[C@H](C)OC(=O)[C@@H](C(C)C)NC(=O)[C@@H](C(C)C)OC1=O [Valinomycin]
Conditions	FV IC50 [nM]	GR50 [µM]	GRmin	drug GRADE
[1]	–	0.0108	–	–
[3]	4060	–	–	–
[4]	–	–	–	34.4
[5]	–	–	-0.0918	–

Conditions	fractional viability, [2]	normalized growth rate inhibition value, [6]
0.00100578 µM	0.993	1.02
0.00317827 µM	0.991	0.986
0.0100433 µM	0.874	0.171
0.0317369 µM	0.933	0.472
0.100289 µM	0.685	-0.0547
0.316912 µM	0.737	0.0438
1.00144 µM	0.675	-0.0358
3.16456 µM	0.553	-0.0823
10 µM	0.384	-0.225

O=C(CCCCCCC(=O)Nc1ccccc1)NO [Vorinostat]
Conditions	FV IC50 [nM]	GR50 [µM]	GRmin	drug GRADE
[1]	–	0.274	–	–
[3]	765	–	–	–
[4]	–	–	–	28
[5]	–	–	-0.601	–

Conditions	fractional viability, [2]	normalized growth rate inhibition value, [6]
0.00100578 µM	0.992	0.932
0.00317827 µM	0.99	1.11
0.0100433 µM	0.991	0.89
0.0317369 µM	0.985	0.906
0.100289 µM	0.973	0.901
0.316912 µM	0.875	0.396
1.00144 µM	0.365	-0.201
3.16456 µM	0.16	-0.515
10 µM	0.091	-0.591

COCC[n+]1c2c(n(Cc3cnccn3)c1C)C(=O)c1ccccc1C2=O [YM155]
Conditions	FV IC50 [nM]	GR50 [µM]	GRmin	drug GRADE
[1]	–	0.00769	–	–
[3]	36.4	–	–	–
[4]	–	–	–	44.1
[5]	–	–	-0.913	–

Conditions	fractional viability, [2]	normalized growth rate inhibition value, [6]
3.16 pM	0.981	0.943
31.6 pM	0.981	1
0.000316 µM	0.983	1.02
0.00316 µM	0.962	0.777
0.01 µM	0.852	0.107
0.0316 µM	0.59	0.0141
0.1 µM	0.0412	-0.788
0.316 µM	0.00681	-0.79
1 µM	0.00318	-0.94
3.16 µM	0.00039	-0.882
10 µM	0	-0.967
31.6 µM	0.0019	-0.859
